Common to all, as to test: growth of human tumour cells (NCI), 48 h
Assay [1] has as its system LOX IMVI melanoma.
Assay [2] concerns OVCAR-3 ovarian.
Assay [3] concerns MDA-MB-435.
For assay [4], the system named is HOP-62 NSCLC.
The test system of assay [5] is MALME-3M melanoma.
The test system of assay [6] is NCI/ADR-RES ovarian.
Assay [7] relates to HL-60(TB) leukemia.
Assay [8] has as its system UACC-257 melanoma.
The test system of assay [9] is CAKI-1 renal.
Assay [10] relates to NCI-H460 lung.
The test system of assay [11] is COLO 205 colon.
Assay [12] deals with EKVX NSCLC.
Assay [13] has as its system OVCAR-4 ovarian.
Assay [14] deals with SK-MEL-2 melanoma.
The subject of assay [15] is HOP-92 NSCLC.

The source of these data is PubChem BioAssay (NCI).

Molecules are shown by their SMILES. “And” between values parts separate entries of the source, which are not always exact repeats. Equal values may be shown once.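 96-well plates; 48 h exposure; 5 concentrations. Endpoints by linear interpolation between flanking doses. Not reached: highest tested concentration assigned. GI50 is the concentration that inhibits growth by half. TGI: total growth inhibition.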

`NC(Cc1ccc(OCc2ccccc2)cn1)C(=O)O` (stereo unspecified): the TGI in assay [1], in assay [2], in assay [3], in assay [4], in assay [5] and in assay [6] was above 100 µM each time. The TGI in assay [7], in [8], in [9], in assay [10], in [11] and in [12] was above 100 µM each time.

With `CCOC(=O)C(/C(=N/S(=O)(=O)c1cc(C)c(Cl)cc1[S-])[n+]1ccc(N(C)C)cc1)=C(/O)c1ccc([N+](=O)[O-])cc1`, the TGI is above 100 µM in [2]; above 100 µM in assay [3]; 78.7 µM in [4]; 88.6 µM in assay [13]; 40.5 µM in assay [5]; above 100 µM in [6]. The TGI was 64.5 µM in [7]; 25.3 µM in assay [8]; 99.7 µM in [9]; above 100 µM in [10]; 90.2 µM in assay [11]; 28.3 µM in assay [14]. The TGI in [15] was found to be 23.9 µM.

Turning to `CN(C)c1ccc(C=Nc2ccc(-c3nc4ccccc4[nH]3)cc2)cc1`, the TGI in assay [1], in assay [2], in assay [3], in assay [4], in assay [13] and in assay [5] was above 100 µM throughout. Further, the TGI is 27.7 µM in [6]; 53.3 µM in assay [7]; above 100 µM in [8]; above 100 µM in assay [9]; above 100 µM in assay [10]; above 100 µM in [11]. Moreover, the TGI in assay [14], in assay [15] and in assay [12] was above 100 µM each time.

Turning to `O=C1/C(=C\Oc2ccc(F)cc2)N2CCC1CC2`, the TGI in [1], in assay [2], in assay [3], in assay [4], in [13] and in [5] was above 100 µM throughout. Moreover, the TGI in [6], in assay [7], in [8], in assay [9], in assay [11] and in [14] was above 100 µM throughout. Moreover, the TGI in assay [15] and in assay [12] was above 100 µM throughout.

With `O=C(O)CN1C=C(C(=O)c2cc3ccccc3n2S(=O)(=O)c2ccccc2)CCC1`, the TGI in assay [1], in assay [2], in assay [3], in assay [4], in [13] and in [5] was above 100 µM each time. In addition, the TGI was above 100 µM in assay [6]; 71.5 µM in assay [7]; above 100 µM in assay [8]; above 100 µM in assay [9]; above 100 µM in assay [10]; 42.5 µM in assay [11]. The TGI in assay [14], in [15] and in assay [12] was above 100 µM each time.

Regarding `CC(NC(=O)/C(=C/c1ccccc1)NC(=O)c1ccccc1)C(=O)O` (stereo unspecified), the TGI in [1], in [2], in [3], in assay [4], in [5] and in assay [6] was above 100 µM in each case. The TGI in assay [7], in assay [8], in [9], in assay [10], in assay [11] and in [14] was above 100 µM throughout. The TGI in assay [15] and in assay [12] was above 100 µM in each case.

Regarding `C=CCN(c1cc(OCc2ccccc2)c2[nH]cc(C)c2c1)S(C)(=O)=O`, the TGI in assay [1] is above 100 µM; in assay [2], above 100 µM; in [3], above 100 µM; in [4] it was above 100 µM; in [13], above 100 µM; in assay [5], 88.7 µM. In addition, the TGI in assay [6], in assay [7], in assay [8], in assay [9], in assay [10] and in assay [11] was above 100 µM each time. For the same compound, the TGI in [14] was above 100 µM; in [15] it was above 100 µM; in assay [12], 67.9 µM.

On to `Cc1ccn2c(=O)cc(CN3CCOCC3)nc2c1`, for which the TGI in [1], in [2], in assay [3], in assay [4], in assay [13] and in assay [5] was above 100 µM throughout. The TGI in assay [6], in [7], in [8], in [9], in assay [10] and in assay [11] was above 100 µM in each case. Further, the TGI in assay [14], in [15] and in [12] was above 100 µM in each case.

For the compound `Nc1ccc2c(O)cc(=O)[nH]c2n1`, the TGI in [3], in assay [13], in assay [5], in [6], in [7] and in [8] was above 100 µM in each case. In addition, the TGI in assay [9], in [10], in assay [11], in [14], in assay [15] and in assay [12] was above 100 µM throughout.

For the compound `COc1cc(NS(C)(=O)=O)ccc1Nc1cc[nH]c2ccc3nccc3c12`, the TGI in assay [1] was 36 µM; in [2], 29.4 µM; in [3] it was 30.1 µM; in [4], 30.6 µM; in [13], 29.7 µM; in assay [5], 28.7 µM. The TGI in assay [6] was above 100 µM; in assay [7], 53.2 µM; in assay [8], 33.2 µM; in assay [9] it was 32.5 µM; in assay [10], 34.5 µM; in assay [11], 41.4 µM. The TGI stood at 30.9 µM in assay [14], 24.8 µM in [15] and 51.3 µM in assay [12].

Turning to `Cc1ccc(S(=O)(=O)NC(=O)NCCc2cnc[nH]2)cc1`, the TGI in [1], in [2], in [3], in assay [4], in assay [13] and in assay [5] was above 100 µM in each case. In addition, the TGI in assay [6], in assay [7], in assay [9], in assay [10], in [11] and in [14] was above 100 µM each time. For the same compound, the TGI in [15] and in assay [12] was above 100 µM in each case.

As for `O=[N+]([O-])c1cccc2nc3ccccc3c(NCCCn3ccnc3[N+](=O)[O-])c12`, the TGI in [1] is 0.13 µM and 0.0216 µM; in assay [2] it was 0.0178 µM and 0.0633 µM; in assay [3] it was 0.000231 µM; in assay [4] it was 0.143 µM; in [13], 0.0735 µM and 0.171 µM; in assay [5], 0.00107 µM. Further, the TGI in assay [6] is 0.495 µM and 0.348 µM; in assay [7], 0.0168 µM and 0.0332 µM; in assay [8], 0.0208 µM and 0.0207 µM; in assay [9], 0.0816 µM and 0.188 µM; in assay [10], 0.0137 µM. Moreover, the GI50 is 0.0122 µM in [2]; 0.0203 µM in [13]; 0.0125 µM in assay [6]; 0.022 µM in [14]; 76.4 µM in [12].

Regarding `Cc1ccc(NC(Nc2ccc(C)cc2C)=C(C(Cl)=C(Cl)Cl)[N+](=O)[O-])c(C)c1`, the TGI in assay [1] amounted to 20.4 µM; in assay [2] it was 29.7 µM; in assay [3] it was 17.2 µM; in [4], 34.2 µM; in [13] it was 33.2 µM; in assay [5], 31.8 µM. In addition, the TGI was above 100 µM in assay [6]; 22 µM in assay [7]; 35.7 µM in assay [8]; 37.4 µM in assay [9]; 29.7 µM in [10]; 32 µM in [11]. Further, the TGI in [15] turned out to be 31.7 µM; in assay [12], 29.8 µM.

Consider `CNNC1=NS(=O)(=O)c2cc(C#N)c(Cl)cc2S1`, for which the TGI in assay [1], in [2], in assay [3], in [4], in [13] and in assay [5] was above 10 µM in each case. The TGI in assay [6], in [7], in assay [8], in assay [9], in [10] and in [11] was above 10 µM in each case. Besides, the TGI in [14] and in assay [12] was above 10 µM throughout.

For `COc1c(CC=C(C)C)c(O)c(C(CC(C)C)c2c(O)c3c(c(C(C)=O)c2O)OC(C(C)(C)O)C3)c(O)c1C(C)=O` (stereo unspecified), the TGI in [1], in assay [2], in assay [3], in assay [4], in assay [13] and in [5] was above 12.5 µM in each case. Besides, the TGI in assay [6] was 11.1 µM; in assay [7], 7.55 µM; in [8], 12.4 µM; in assay [9], above 12.5 µM; in assay [11], 8.38 µM; in assay [14], above 12.5 µM. Moreover, the results for the TGI in [15] and in [12] were 6.43 µM and above 12.5 µM, respectively.

As for `C=CCn1c(-c2ccc([N+](=O)[O-])cc2)cs/c1=N\C(P(=O)(O)O)P(=O)(O)O`, the TGI in assay [1], in assay [2], in assay [3], in [4], in [5] and in [6] was above 100 µM each time. Also, the TGI is 90.6 µM in assay [7]; above 100 µM in assay [8]; above 100 µM in assay [9]; above 100 µM in assay [10]; above 100 µM in assay [11]; above 100 µM in assay [15]. In assay [12], this compound showed a TGI above 100 µM.

For the compound `Cc1cn([C@@H]2C[C@@H]2CO)c(=O)[nH]c1=O`, the TGI in assay [1], in assay [3], in assay [4], in assay [13], in assay [5] and in assay [6] was above 100 µM each time. In addition, the TGI in [7], in assay [8], in [9], in assay [10], in assay [11] and in assay [14] was above 100 µM in each case. Further, the TGI in assay [15] and in [12] was above 100 µM in each case.

Take `CC(=O)Nc1c(S(=O)(=O)c2ccccc2)c(C)c(C)n1CCN(C)C`: the TGI in assay [2], in assay [3], in assay [13], in [5], in assay [6] and in [7] was above 100 µM each time. The TGI in [8], in assay [9], in assay [10], in [11], in assay [14] and in assay [15] was above 100 µM throughout. The same compound came in with a TGI in assay [12] above 100 µM.

Regarding `NNC(=S)N/N=C(\C(=O)Nc1cccc(O)c1)C1C(=O)NC(=S)NC1=O`, the TGI in [1], in assay [2], in [3], in assay [4], in assay [13] and in [5] was above 100 µM throughout. The TGI in [6], in [7], in assay [8], in assay [9], in assay [10] and in assay [14] was above 100 µM each time. Moreover, the TGI in [15] and in [12] was above 100 µM in each case.
